Broadly, the pIC50 is −log10 of the IC50, conventionally taken in molar units. In general, pKi refers to the negative decadic logarithm of the Ki, by convention in mol/L. Read a high pKi as a small Ki.

17 molecules from US8008299B2, “Urotensin II receptor antagonists” (Janssen Pharmaceutica, N.V., priority 2007, dated 2011) can be followed below.

pIC50, pKi: −log10 of the molar value. Where two headings read alike, the source gives them in different places. A value given as a limit tells only on which side of the number the result lay.

Assay [1] addresses T1, rat GPR14 (U-II receptor) (Rattus norvegicus, UniProt P49684).
T1 construct: expressed in transfected cells
T1 sequence (P49684 1-386): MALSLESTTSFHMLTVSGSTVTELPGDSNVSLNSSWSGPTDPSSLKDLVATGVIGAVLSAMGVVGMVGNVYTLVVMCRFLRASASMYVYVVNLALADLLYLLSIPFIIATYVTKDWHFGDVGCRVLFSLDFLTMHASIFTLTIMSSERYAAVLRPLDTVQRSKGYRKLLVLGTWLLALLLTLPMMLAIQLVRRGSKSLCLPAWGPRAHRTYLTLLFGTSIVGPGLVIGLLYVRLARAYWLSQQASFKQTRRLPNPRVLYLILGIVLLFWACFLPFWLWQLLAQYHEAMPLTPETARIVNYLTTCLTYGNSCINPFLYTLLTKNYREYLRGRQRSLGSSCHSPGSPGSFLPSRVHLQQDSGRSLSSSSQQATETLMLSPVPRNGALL
Put plainly: Rat UII Calcium Mobilization FLIPR Assay. The assay is classed as cell-based. As to conditions: CHO cells transfected with rat GPR14; antagonist activity after 5 min incubation vs agonist (Ac)-CFWK(2-NaI)C-NH2 at 1 nM. From the text:
To derive these cells, the complete coding sequence of rat U-II (Genbank Accession No. U32673) was amplified by nested PCR from rat heart marathon-Ready cDNA. […] The PCR products were cloned into pcDNA3 (Invitrogen) digested with EcoR I and Xba I. Clones containing rat U-II receptor were verified by complete sequencing of the U-II receptor insert to ensure a lack of PCR-introduced errors. The constructed vector was transfected into CHO cells by using lipofectamine (GIBCO BRL). CHO cells with high expression of rat U-II receptor were selected and established as stable cell lines by using G418. CHO cells were seeded at 25,000 cells per well into 96-well, black-wall, clear-bottom microtiter plates 24 h before assay. Cells in culture media (DMEM/F12 containing 15 mM HEPES, L-glutamine, pyridoxine hydrochloride; 10% fetal bovine serum; 1 mg/mL G418 sulfate; antibiotic-antimycotic; pH 7.4) were loaded with proprietary dye, from the FLIPR Calcium Assay Kit (Molecular Devices), prepared in assay buffer (Hanks Balanced Salts Solution, 20 mM HEPES, 0.1% BSA, 2.5 mM probenecid, pH 7.4), and incubated for 1 h at 37° C. Calcium mobilization determinations were performed at room temperature (23° C.).
On the technique in general: Calcium flux is commonly read through the fluorescence of an indicator in the cells.

The target in assay [2] is T2, Human UII (U-II receptor) in 6D9 human rhabdomyosarcoma cells (Homo sapiens, UniProt Q9UKP6).
T2 construct: 6D9: isolated by dilution subcloning of RMS13 cells, ATCC® Number: CRL-2061; host or cells: 6D9 human rhabdomyosarcoma cells (subclone of RMS13)
T2 sequence (Q9UKP6 1-389): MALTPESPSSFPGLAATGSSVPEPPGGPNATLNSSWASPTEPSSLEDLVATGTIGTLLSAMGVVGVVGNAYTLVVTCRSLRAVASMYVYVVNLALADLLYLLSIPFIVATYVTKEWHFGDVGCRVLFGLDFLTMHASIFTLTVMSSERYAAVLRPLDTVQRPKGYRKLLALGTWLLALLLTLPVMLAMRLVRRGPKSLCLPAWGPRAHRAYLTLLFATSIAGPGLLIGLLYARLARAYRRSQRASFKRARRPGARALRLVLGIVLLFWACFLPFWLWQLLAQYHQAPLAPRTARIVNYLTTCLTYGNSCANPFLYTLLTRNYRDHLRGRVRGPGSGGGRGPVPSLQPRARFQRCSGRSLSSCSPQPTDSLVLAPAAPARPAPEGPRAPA
Kind of assay: Human UII Calcium Mobilization Assay. Type of assay: cell-based. As for the experimental part:
25 μL of dye solution was added to the wells such that the final liquid volume before agonist/antagonist treatment was 50 μL for all assays. The cell plates were incubated at 37° C. for 45 minutes and the fluorescence intensity was measured on a Fluorometric Imaging Plate Reader (FLIPR^TETRA, Molecular Devices, Sunnyvale, Calif.).
Antagonist and agonist U-II were added at room temperature on the FLIPR^TETRA, and the fluorescence intensity before and after addition was measured over a period of 4 minutes. The dye incubation time and temperature as well as instrument setting was adjusted so the fluorescence intensity could be compared between plates on the same day. EC50 and IC50 were analyzed using GraphPad Prism 4 software (GraphPad Software Inc., San Diego, Calif.).
For assays, U-II agonist, U-II antagonist and urantide were diluted with HBSS/HEPES containing 0.01% FBS.
Test compounds were dissolved in DMSO at 10 mM concentration. The serial dilutions were carried out in HBSS/HEPES. The highest final DMSO concentration was at 0.1%.

The target in assay [3] is T3, UT receptors in HSMM (Human Skeletal Muscle Myoblasts) (Homo sapiens, UniProt Q9UKP6).
T3 sequence (Q9UKP6 1-389): T2 sequence (Q9UKP6 1-389)
Kind of assay: Human Radioligand Binding Assay ((^125I)-U-II binding to intact HSMM).

Setting [4] is: 6D9 human rhabdomyosarcoma cells, FLIPR TETRA, average, read-out: Human UII Ca+ Mobilization Average IC50.

On to `CCN1CCN(c2cccc3c2CN([C@H](CCCNC(=O)c2ccncc2)c2ccc(OC)c(OC)c2)C3=O)CC1` [Cpd 54, N-{(4R)-4-(3,4-dimethoxy-phenyl)-4-[4-(4-ethyl-piperazin-1-yl)-1-oxo-1,3-dihydro-isoindol-2-yl]-butyl}-isonicotinamide], for which the pIC50 was 7.09 in assay [1] and 6.20 in assay [2] (setting [4]). In addition, in assay [3], the pKi was 7.11.

For `CCN1CCN(c2cccc3c2CN([C@H](CCCn2cnc4ccccc42)c2ccc(OC)c(OC)c2)C3=O)CC1` [Cpd 29, 2-[(1R)-4-benzoimidazol-1-yl-1-(3,4-dimethoxy-phenyl)-butyl]-4-(4-ethyl-piperazin-1-yl)-2,3-dihydro-isoindol-1-one], the results for the pIC50 in assay [1] and in assay [2] (setting [4]) were 7.85 and 6.42, respectively. Moreover, the pKi in assay [3] is 7.25.

As to `CCN1CCN(c2cccc3c2CN(C(c2ccc(OC)c(OC)c2)C2CCN(S(=O)(=O)c4cccs4)CC2)C3=O)CC1` (stereo not drawn) [Cpd 45, 2-{(3,4-dimethoxy-phenyl)-[1-(thiophene-2-sulfonyl)-piperidin-4-yl]-methyl}-4-(4-ethyl-piperazin-1-yl)-2,3-dihydro-isoindol-1-one], the negative logarithm of the IC50 (pIC50) was 6.33 in assay [1] and 5.48 in assay [2] (setting [4]). This molecule also gave a pKi in assay [3] of under 6.52.

For `COc1ccc([C@@H](CCCNC(=O)c2cnoc2C)N2Cc3c(cccc3N3CCN(C(C)c4ccccc4)CC3)C2=O)cc1OC` (stereo partly drawn) [Cpd 85, 5-methyl-isoxazole-4-carboxylic acid ((4R)-4-(3,4-dimethoxy-phenyl)-4-{1-oxo-4-[4-(1-phenyl-ethyl)-piperazin-1-yl]-1,3-dihydro-isoindol-2-yl}-butyl)-amide], the pIC50 in assay [1] was 8.22; in assay [2], 6.49. Further, the pKi in assay [3] is 7.82.

`COc1ccc([C@@H](CCCOc2ccccc2)N2Cc3c(cccc3N3CCN(C4CC4)CC3)C2=O)cc1OC` [Cpd 28, 4-(4-cyclopropyl-piperazin-1-yl)-2-[(1R)-1-(3,4-dimethoxy-phenyl)-4-phenoxy-butyl]-2,3-dihydro-isoindol-1-one]: the negative logarithm of the IC50 (pIC50) in assay [1] is 7.60; in assay [2] (setting [4]) it was 5.92. For the same molecule, in assay [3], the pKi was 6.81.

As for `CC[N+]1(C)CCN(c2cccc3c2CN([C@H](CCCN(Cc2ccccc2)Cc2ccccc2)c2ccc(OC)c(OC)c2)C3=O)CC1` [Cpd 38, 4-{2-[(1R)-4-dibenzylamino-1-(3,4-dimethoxy-phenyl)-butyl]-1-oxo-2,3-dihydro-1H-isoindol-4-yl}-1-ethyl-1-methyl-piperazin-1-ium], the results for the pIC50 in assay [1] and in assay [2] (setting [4]) were 6.73 and 5.55, respectively. Besides, the pKi in assay [3] was under 6.52.

Regarding `CCN1CCN(c2cccc3c2CN([C@H](CCCNc2ccc4ccccc4n2)c2ccc(OC)c(OC)c2)C3=O)CC1` [Cpd 89, 2-[(1R)-1-(3,4-dimethoxy-phenyl)-4-(quinolin-2-ylamino)-butyl]-4-(4-ethyl-piperazin-1-yl)-2,3-dihydro-isoindol-1-one], in assay [1], the pIC50 is 6.59. The molecule also had a pKi in assay [3] of under 6.52.

On to `CCN1CCN(c2cccc3c2CN([C@H](CCCN(C)Cc2ccco2)c2ccc(OC)c(OC)c2)C3=O)CC1` [Cpd 94, 2-[(1R)-1-(3,4-dimethoxy-phenyl)-4-(furan-2-ylmethyl-methyl-amino)-butyl]-4-(4-ethyl-piperazin-1-yl)-2,3-dihydro-isoindol-1-one], for which the figures for the pIC50 in assay [1] and in assay [2] (setting [4]) were 8.40 and 7.13, respectively. In assay [3], this molecule showed a pKi of 7.37.

Consider `CCN1CCN(c2cccc3c2CN([C@H](CCCOCc2ccccc2)c2ccc(OC)c(OC)c2)C3=O)CC1` [Cpd 74, 2-[(1R)-4-benzyloxy-1-(3,4-dimethoxy-phenyl)-butyl]-4-(4-ethyl-piperazin-1-yl)-2,3-dihydro-isoindol-1-one], for which the pIC50 was 8.30 in assay [1] and 6.84 in assay [2] (setting [4]). For the same molecule, the pKi in assay [3] is 7.72.

With `COc1ccc([C@@H](CCCSc2nnnn2C)N2Cc3c(cccc3N3CCNCC3)C2=O)cc1OC` [Cpd 24, 2-[(1R)-1-(3,4-dimethoxy-phenyl)-4-(1-methyl-1H-tetrazol-5-ylsulfanyl)-butyl]-4-piperazin-1-yl-2,3-dihydro-isoindol-1-one], the pIC50 in assay [1] was 6.78; in assay [2] (setting [4]), 5.81.

Consider `CCN1CCN(c2cccc3c2CN([C@H](CCCN(C)S(=O)(=O)c2cccs2)c2ccc(OC)c(OC)c2)C3=O)CC1` [Cpd 62, thiophene-2-sulfonic acid {(4R)-4-(3,4-dimethoxy-phenyl)-4-[4-(4-ethyl-piperazin-1-yl)-1-oxo-1,3-dihydro-isoindol-2-yl]-butyl}-methyl-amide], for which the values for the pIC50 in assay [1] and in assay [2] (setting [4]) were 8.15 and 7.06, respectively.

With `CCN1CCN(c2cccc3c2CN([C@H](CCCN(Cc2ccc(F)cc2)C(C)=O)c2ccc(OC)c(OC)c2)C3=O)CC1` [Cpd 88, N-{(4R)-4-(3,4-dimethoxy-phenyl)-4-[4-(4-ethyl-piperazin-1-yl)-1-oxo-1,3-dihydro-isoindol-2-yl]-butyl}-N-(4-fluoro-benzyl)-acetamide], in assay [1], the pIC50 is 8.22. Further, the pKi in assay [3] was 8.00.

For `COc1ccc([C@@H](CCCN(C)S(=O)(=O)c2cccs2)N2Cc3c(cccc3N3CCN(C)CC3)C2=O)cc1OC` [Cpd 26, thiophene-2-sulfonic acid {(4R)-4-(3,4-dimethoxy-phenyl)-4-[4-(4-methyl-piperazin-1-yl)-1-oxo-1,3-dihydro-isoindol-2-yl]-butyl}-methyl-amide], the pIC50 is 7.80 in assay [1] and 6.47 in assay [2] (setting [4]).

Regarding `CCN1CCN(c2cccc3c2CN([C@H](CCCOCc2cccc(C)c2)c2ccc(OC)c(OC)c2)C3=O)CC1` [Cpd 55, 2-[(1R)-1-(3,4-dimethoxy-phenyl)-4-(3-methyl-benzyloxy)-butyl]-4-(4-ethyl-piperazin-1-yl)-2,3-dihydro-isoindol-1-one], the pIC50 in assay [1] is 5.67; in assay [2] (setting [4]), under 5.00.

On to `CCN1CCN(c2cccc3c2CN([C@H](CCc2ccc4c(n2)NCCC4)c2ccc(OC)c(OC)c2)C3=O)CC1` [Cpd 86, 2-[(1R)-1-(3,4-dimethoxy-phenyl)-3-(5,6,7,8-tetrahydro-[1,8]naphthyridin-2-yl)-propyl]-4-(4-ethyl-piperazin-1-yl)-2,3-dihydro-isoindol-1-one], for which the pIC50 in assay [1] is over 6.00. In addition, the pKi in assay [3] is 6.41.

For `CCN1CCN(c2cccc3c2CN([C@H](CCCOCc2cccc(F)c2)c2ccc(OC)c(OC)c2)C3=O)CC1` [Cpd 52, 2-[(1R)-1-(3,4-dimethoxy-phenyl)-4-(3-fluoro-benzyloxy)-butyl]-4-(4-ethyl-piperazin-1-yl)-2,3-dihydro-isoindol-1-one], the pIC50 in assay [1] was 5.50; in assay [2] (setting [4]) it was under 5.00.

In the case of `CCN1CCN(c2cccc3c2CN([C@H](CCCc2ccccc2)c2ccc(OC)c(OC)c2)C3=O)CC1` [Cpd 87, 2-[(1R)-1-(3,4-dimethoxy-phenyl)-4-phenyl-butyl]-4-(4-ethyl-piperazin-1-yl)-2,3-dihydro-isoindol-1-one], the pIC50 in assay [1] was 8.22. Further, in assay [3], the negative-log Ki (pKi) was 7.43.
